Reference: the kinase profiling compilation of Christmann-Franck et al. (2016)

Experiments:
Assay in all cases: KINOMEscan competition binding
Settings in all cases: compound 10.0 µM
CSNK1G2 (human) = CSNK1G2 (human) (UniProt P78368)
TGFBR2 (human) = TGFBR2 (human) (UniProt P37173)
CAMK2G (human) = CAMK2G (human) (UniProt Q13555)
MAPK12 (human) = MAPK12 (human) (UniProt P53778)
MKNK1 (human) = MKNK1 (human) (UniProt Q9BUB5)
[1] = system: RET (human), P07949 [V804L]
TEC (human) = TEC (human) (UniProt P42680)
CDC42BPA (human) = CDC42BPA (human) (UniProt Q5VT25)
MYO3B (human) = MYO3B (human) (UniProt Q8WXR4)
MAP4K2 (human) = MAP4K2 (human) (UniProt Q12851)
MAPK10 (human) = MAPK10 (human) (UniProt P53779)
STK35 (human) = STK35 (human) (UniProt Q8TDR2)
RPS6KA4 KD2 (human) = RPS6KA4 KD2 (human) (UniProt O75676)
Sequence of RPS6KA4 KD2 (human) (O75676 whole entry, looked up): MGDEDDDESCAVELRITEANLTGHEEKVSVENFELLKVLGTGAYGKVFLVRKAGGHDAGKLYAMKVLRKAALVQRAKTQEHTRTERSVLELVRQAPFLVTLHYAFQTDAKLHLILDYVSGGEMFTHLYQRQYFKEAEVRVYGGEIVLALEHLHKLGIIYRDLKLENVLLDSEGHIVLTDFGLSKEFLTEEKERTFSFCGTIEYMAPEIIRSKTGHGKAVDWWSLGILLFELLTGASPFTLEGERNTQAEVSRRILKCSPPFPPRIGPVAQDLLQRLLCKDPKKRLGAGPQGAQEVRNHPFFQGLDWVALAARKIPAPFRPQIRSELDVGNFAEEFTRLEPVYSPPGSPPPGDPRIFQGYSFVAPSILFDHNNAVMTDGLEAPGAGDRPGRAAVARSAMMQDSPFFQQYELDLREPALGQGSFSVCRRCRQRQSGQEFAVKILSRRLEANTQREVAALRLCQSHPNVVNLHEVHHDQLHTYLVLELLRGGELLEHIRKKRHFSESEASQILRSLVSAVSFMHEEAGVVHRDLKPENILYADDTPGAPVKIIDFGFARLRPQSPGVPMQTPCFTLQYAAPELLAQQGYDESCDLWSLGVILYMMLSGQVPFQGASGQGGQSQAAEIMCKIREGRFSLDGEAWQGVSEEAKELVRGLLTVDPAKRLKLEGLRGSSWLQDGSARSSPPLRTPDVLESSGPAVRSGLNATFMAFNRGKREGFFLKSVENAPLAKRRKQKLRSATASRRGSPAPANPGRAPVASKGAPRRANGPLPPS

DDR1 (human) = DDR1 (human) (UniProt Q08345)
Sequence of DDR1 (human) (Q08345 whole entry, looked up): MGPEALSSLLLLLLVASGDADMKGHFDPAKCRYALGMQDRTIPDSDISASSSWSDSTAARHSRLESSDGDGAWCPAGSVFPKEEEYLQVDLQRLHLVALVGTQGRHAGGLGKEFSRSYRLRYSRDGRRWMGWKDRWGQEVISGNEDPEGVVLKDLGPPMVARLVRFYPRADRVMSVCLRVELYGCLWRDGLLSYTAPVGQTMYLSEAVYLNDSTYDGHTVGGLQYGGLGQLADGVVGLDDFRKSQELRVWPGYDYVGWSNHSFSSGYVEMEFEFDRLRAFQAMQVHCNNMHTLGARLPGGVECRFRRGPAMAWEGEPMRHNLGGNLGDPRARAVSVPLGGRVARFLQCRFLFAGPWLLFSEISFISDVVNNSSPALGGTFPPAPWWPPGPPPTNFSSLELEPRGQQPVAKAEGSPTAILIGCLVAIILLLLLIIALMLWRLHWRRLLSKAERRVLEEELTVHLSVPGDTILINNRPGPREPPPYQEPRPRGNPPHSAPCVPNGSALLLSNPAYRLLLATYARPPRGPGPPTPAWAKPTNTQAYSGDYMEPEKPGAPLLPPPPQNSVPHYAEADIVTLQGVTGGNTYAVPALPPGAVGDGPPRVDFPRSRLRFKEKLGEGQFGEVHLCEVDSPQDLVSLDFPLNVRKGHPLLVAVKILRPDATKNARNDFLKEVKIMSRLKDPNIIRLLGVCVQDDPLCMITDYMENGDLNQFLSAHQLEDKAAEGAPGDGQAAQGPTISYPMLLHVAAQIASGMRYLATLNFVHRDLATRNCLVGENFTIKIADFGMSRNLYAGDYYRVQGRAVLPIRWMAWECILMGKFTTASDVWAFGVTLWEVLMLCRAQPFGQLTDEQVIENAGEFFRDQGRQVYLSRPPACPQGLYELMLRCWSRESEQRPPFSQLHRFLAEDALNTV

PLK1 (human) = PLK1 (human) (UniProt P53350)
MAP4K4 (human) = MAP4K4 (human) (UniProt O95819)
PDGFRA (human) = PDGFRA (human) (UniProt P16234)
IGF1R (human) = IGF1R (human) (UniProt P08069)
HCK (human) = HCK (human) (UniProt P08631)
Sequence of HCK (human) (P08631 whole entry, looked up): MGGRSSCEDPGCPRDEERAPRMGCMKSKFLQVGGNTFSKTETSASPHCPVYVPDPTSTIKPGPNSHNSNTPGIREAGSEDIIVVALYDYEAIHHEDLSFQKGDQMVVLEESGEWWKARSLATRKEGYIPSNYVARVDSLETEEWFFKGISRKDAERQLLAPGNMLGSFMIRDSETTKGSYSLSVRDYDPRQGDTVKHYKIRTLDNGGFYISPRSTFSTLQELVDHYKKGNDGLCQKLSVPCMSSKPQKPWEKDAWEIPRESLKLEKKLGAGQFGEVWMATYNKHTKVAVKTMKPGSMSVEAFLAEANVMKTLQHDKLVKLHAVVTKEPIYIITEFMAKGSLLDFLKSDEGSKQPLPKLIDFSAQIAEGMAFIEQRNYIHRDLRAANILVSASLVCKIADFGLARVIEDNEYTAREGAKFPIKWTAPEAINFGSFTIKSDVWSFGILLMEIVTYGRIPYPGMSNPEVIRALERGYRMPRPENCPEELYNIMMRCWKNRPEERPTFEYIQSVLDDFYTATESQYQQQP

CLK2 (human) = CLK2 (human) (UniProt P49760)
Sequence of CLK2 (human) (P49760 whole entry, looked up): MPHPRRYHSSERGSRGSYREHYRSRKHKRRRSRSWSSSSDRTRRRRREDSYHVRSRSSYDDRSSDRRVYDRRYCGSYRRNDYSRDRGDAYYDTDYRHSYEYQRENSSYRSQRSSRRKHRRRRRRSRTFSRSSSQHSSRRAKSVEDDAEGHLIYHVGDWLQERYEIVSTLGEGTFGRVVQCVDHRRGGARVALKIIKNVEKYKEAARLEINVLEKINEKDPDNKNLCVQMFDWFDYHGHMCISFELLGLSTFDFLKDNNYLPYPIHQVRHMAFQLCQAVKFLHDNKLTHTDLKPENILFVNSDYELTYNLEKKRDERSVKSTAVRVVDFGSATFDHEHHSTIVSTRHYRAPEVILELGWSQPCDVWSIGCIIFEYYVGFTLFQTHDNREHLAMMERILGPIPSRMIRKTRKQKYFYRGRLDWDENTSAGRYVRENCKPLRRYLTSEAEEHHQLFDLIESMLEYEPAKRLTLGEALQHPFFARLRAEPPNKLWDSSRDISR

MAPK1 (human) = MAPK1 (human) (UniProt P28482)
Sequence of MAPK1 (human) (P28482 whole entry, looked up): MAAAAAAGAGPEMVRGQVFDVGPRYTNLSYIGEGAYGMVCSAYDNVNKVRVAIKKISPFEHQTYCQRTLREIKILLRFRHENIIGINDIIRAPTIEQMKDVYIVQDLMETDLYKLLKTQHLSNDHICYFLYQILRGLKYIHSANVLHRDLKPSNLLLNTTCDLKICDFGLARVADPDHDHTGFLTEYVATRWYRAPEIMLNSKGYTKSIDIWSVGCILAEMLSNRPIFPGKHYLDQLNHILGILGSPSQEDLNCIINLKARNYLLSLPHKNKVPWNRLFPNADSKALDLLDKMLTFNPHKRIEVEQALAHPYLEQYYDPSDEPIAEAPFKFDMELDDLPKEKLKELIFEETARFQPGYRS

INSRR (human) = INSRR (human) (UniProt P14616)
CAMK1G (human) = CAMK1G (human) (UniProt Q96NX5)
PRKD3 (human) = PRKD3 (human) (UniProt O94806)
TEK (human) = TEK (human) (UniProt Q02763)
STK38L (human) = STK38L (human) (UniProt Q9Y2H1)
TAOK3 (human) = TAOK3 (human) (UniProt Q9H2K8)
BMPR1B (human) = BMPR1B (human) (UniProt O00238)
MAPK3 (human) = MAPK3 (human) (UniProt P27361)
CDK16 (human) = CDK16 (human) (UniProt Q00536)
BRSK2 (human) = BRSK2 (human) (UniProt Q8IWQ3)
MAPK6 (human) = MAPK6 (human) (UniProt Q16659)
LCK (human) = LCK (human) (UniProt P06239)
CHEK2 (human) = CHEK2 (human) (UniProt O96017)
MAP3K4 (human) = MAP3K4 (human) (UniProt Q9Y6R4)
Sequence of MAP3K4 (human) (Q9Y6R4 whole entry, looked up): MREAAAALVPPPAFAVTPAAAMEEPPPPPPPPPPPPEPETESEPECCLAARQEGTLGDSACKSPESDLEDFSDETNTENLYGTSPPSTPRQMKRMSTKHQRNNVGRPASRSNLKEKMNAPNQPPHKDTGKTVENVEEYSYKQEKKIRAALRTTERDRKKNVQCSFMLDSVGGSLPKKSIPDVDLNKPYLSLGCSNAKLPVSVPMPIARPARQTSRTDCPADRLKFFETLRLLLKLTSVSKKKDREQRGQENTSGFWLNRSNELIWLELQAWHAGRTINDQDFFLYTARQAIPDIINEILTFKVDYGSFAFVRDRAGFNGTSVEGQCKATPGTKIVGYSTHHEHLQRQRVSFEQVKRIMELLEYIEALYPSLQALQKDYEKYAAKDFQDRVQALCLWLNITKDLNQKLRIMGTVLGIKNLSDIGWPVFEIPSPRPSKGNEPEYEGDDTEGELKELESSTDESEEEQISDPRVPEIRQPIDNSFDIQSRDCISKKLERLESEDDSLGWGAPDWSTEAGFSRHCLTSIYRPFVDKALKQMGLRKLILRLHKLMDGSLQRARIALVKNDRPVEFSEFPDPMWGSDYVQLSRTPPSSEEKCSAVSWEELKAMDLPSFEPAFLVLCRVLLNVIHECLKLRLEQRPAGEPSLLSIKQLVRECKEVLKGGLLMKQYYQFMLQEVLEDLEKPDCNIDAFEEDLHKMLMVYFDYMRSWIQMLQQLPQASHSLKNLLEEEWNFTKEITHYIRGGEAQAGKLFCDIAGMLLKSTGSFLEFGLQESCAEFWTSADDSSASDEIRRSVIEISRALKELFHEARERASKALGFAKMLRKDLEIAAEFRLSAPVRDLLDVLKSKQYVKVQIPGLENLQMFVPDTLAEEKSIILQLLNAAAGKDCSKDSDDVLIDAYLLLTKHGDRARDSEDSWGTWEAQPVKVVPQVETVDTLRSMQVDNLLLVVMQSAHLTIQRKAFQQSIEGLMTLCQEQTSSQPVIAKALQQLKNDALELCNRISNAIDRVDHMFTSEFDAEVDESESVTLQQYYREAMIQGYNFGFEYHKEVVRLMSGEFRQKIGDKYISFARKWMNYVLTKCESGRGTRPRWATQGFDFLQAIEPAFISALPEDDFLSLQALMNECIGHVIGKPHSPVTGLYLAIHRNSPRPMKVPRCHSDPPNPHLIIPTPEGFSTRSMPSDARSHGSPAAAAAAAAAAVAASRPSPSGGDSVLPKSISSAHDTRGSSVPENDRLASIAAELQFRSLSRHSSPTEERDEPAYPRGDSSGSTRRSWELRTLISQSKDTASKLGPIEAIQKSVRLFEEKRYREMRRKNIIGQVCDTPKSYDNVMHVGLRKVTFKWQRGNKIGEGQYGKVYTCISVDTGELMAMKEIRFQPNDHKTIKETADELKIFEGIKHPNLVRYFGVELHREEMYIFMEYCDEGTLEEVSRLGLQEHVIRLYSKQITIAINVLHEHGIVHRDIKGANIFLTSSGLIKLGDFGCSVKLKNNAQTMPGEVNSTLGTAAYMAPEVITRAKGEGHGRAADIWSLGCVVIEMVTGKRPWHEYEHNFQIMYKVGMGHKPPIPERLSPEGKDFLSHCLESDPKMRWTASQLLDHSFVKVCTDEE

Sequence of MAPK12 (human) (P53778 whole entry, looked up): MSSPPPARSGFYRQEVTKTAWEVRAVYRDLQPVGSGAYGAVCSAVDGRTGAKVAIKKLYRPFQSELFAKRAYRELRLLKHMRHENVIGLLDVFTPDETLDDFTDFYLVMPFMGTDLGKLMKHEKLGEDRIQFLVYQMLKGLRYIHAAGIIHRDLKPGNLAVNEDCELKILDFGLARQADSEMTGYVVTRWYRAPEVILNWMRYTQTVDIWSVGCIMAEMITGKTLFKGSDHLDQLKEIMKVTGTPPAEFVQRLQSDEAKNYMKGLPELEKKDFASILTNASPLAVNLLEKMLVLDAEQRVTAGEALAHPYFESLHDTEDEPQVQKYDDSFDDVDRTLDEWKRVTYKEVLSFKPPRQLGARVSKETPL

Row | kinase still bound, per cent of control (CSNK1G2 (human)) [%] | kinase still bound, per cent of control (TGFBR2 (human)) [%] | kinase still bound, per cent of control (CAMK2G (human)) [%] | kinase still bound, per cent of control (MAPK12 (human)) [%] | kinase still bound, per cent of control (MKNK1 (human)) [%] | kinase still bound, per cent of control (TEC (human)) [%] | kinase still bound, per cent of control (CDC42BPA (human)) [%] | kinase still bound, per cent of control (MYO3B (human)) [%] | kinase still bound, per cent of control (MAPK10 (human)) [%] | kinase still bound, per cent of control (RPS6KA4 KD2 (human)) [%] | kinase still bound, per cent of control (DDR1 (human)) [%] | kinase still bound, per cent of control (PLK1 (human)) [%] | kinase still bound, per cent of control (MAP4K4 (human)) [%] | kinase still bound, per cent of control (PDGFRA (human)) [%] | kinase still bound, per cent of control (IGF1R (human)) [%] | kinase still bound, per cent of control (HCK (human)) [%] | kinase still bound, per cent of control (CLK2 (human)) [%] | kinase still bound, per cent of control (MAPK1 (human)) [%] | kinase still bound, per cent of control (INSRR (human)) [%] | kinase still bound, per cent of control (CAMK1G (human)) [%] | also measured | SMILES
1 | 100 | 100 | 100 | 100 | 100 | 25 | 100 | 100 | 100 | 100 | 100 | 100 | 100 | 100 | 4.1 | 100 | 3.7 | 100 | 0.35 | 100 | kinase still bound, per cent of control [1]: 100%; kinase still bound, per cent of control (MAP4K2 (human)): 100%; kinase still bound, per cent of control (STK35 (human)): 100%; kinase still bound, per cent of control (PRKD3 (human)): 100%; kinase still bound, per cent of control (TEK (human)): 29%; kinase still bound, per cent of control (STK38L (human)): 7%; kinase still bound, per cent of control (TAOK3 (human)): 3.6%; kinase still bound, per cent of control (BMPR1B (human)): 100%; kinase still bound, per cent of control (MAPK3 (human)): 100%; kinase still bound, per cent of control (CDK16 (human)): 100%; kinase still bound, per cent of control (BRSK2 (human)): 100%; kinase still bound, per cent of control (MAPK6 (human)): 100%; kinase still bound, per cent of control (LCK (human)): 6.2%; kinase still bound, per cent of control (CHEK2 (human)): 100%; kinase still bound, per cent of control (MAP3K4 (human)): 12% | COc1cc(C)c(Sc2cnc(NC(=O)c3ccc(CNC(C)C(C)C)cc3)s2)cc1C(=O)N1CCN(C(C)=O)CC1 (stereo not given)
2 | 100 | 100 | 100 | 100 | 100 | 100 | 100 | 24 | 28 | 100 | 100 | 21 | 100 | 100 | 0.65 | 24 | 4.6 | 26 | 1.2 | 100 | kinase still bound, per cent of control [1]: 100%; kinase still bound, per cent of control (MAP4K2 (human)): 100%; kinase still bound, per cent of control (STK35 (human)): 100%; kinase still bound, per cent of control (PRKD3 (human)): 100%; kinase still bound, per cent of control (TEK (human)): 100%; kinase still bound, per cent of control (STK38L (human)): 100%; kinase still bound, per cent of control (TAOK3 (human)): 100%; kinase still bound, per cent of control (BMPR1B (human)): 100%; kinase still bound, per cent of control (MAPK3 (human)): 100%; kinase still bound, per cent of control (CDK16 (human)): 100%; kinase still bound, per cent of control (BRSK2 (human)): 100%; kinase still bound, per cent of control (MAPK6 (human)): 100%; kinase still bound, per cent of control (LCK (human)): 14%; kinase still bound, per cent of control (CHEK2 (human)): 14%; kinase still bound, per cent of control (MAP3K4 (human)): 100% | COc1cc(N2CCC(C(N)=O)CC2)ccc1Nc1nc(N)c(Cl)c(Nc2ccccc2S(=O)(=O)C(C)C)n1
3 | 100 | 100 | 100 | 100 | 100 | 0.2 | 100 | 100 | 100 | 100 | 0.55 | 100 | 7 | 8.6 | 100 | 0.2 | 100 | 100 | 100 | 100 | kinase still bound, per cent of control (PRKD3 (human)): 100%; kinase still bound, per cent of control (TEK (human)): 0.05%; kinase still bound, per cent of control (STK38L (human)): 100%; kinase still bound, per cent of control (BMPR1B (human)): 100%; kinase still bound, per cent of control (MAPK3 (human)): 100%; kinase still bound, per cent of control (CDK16 (human)): 100%; kinase still bound, per cent of control (BRSK2 (human)): 100%; kinase still bound, per cent of control (MAPK6 (human)): 100%; kinase still bound, per cent of control (LCK (human)): 0.4%; kinase still bound, per cent of control (MAP3K4 (human)): 100% | COc1ccc(N(C(=O)Oc2cc(C(=O)Nc3cccc(C(F)(F)F)c3)ccc2C)c2ccnc(Nc3ccc(N4CCN(C)CC4)cc3)n2)c(OC)c1
